According to US11014964B2, “Peptide amide compound and preparation method and medical use thereof” (Sichuan Haisco Pharmaceutical Co., Ltd., priority 2017, dated 2021):

Columns and labels:
human κ-opioid receptor = molecular target: T1, human κ-opioid receptor (Homo sapiens, UniProt P41145); assay: Agonist activity on human κ-opioid receptors (inhibition of forskolin-stimulated cAMP release, TR-FRET); format: cell-based; conditions: OPRK1 cells (DiscoveRx)
T1 construct: host or cells: OPRK1 cells (DiscoveRx)
Excerpt: Test 1: Agonist Activity on Human κ-Opioid Receptors
Forskolin can stimulate the release of cAMP from a human κ-opioid receptor-overexpressing cell line, OPRK1 cells (DiscoveRx), and κ-opioid receptor agonists can inhibit the cAMP release stimulated by forskolin. By detecting the inhibitory effect of the test compound on the cAMP release stimulated by forskolin, the agonistic activity of the compound on the human κ-opioid receptor can be determined. First, a certain concentration of forskolin and different concentrations of the test compound were incubated with human κ-opioid receptor overexpressing cell lines. A cAMP immunoassay (LANCE®, PerkinElmer) based on time-resolved fluorescence resonance energy transfer (TR-FRET) was used to determine cAMP levels in the stimulated OPRK1 cells. The specific method is as follows:
OPRK1 cells (DiscoveRx) that highly express human κ-opioid receptors were cultured in McCoy's 5A (Gibco 16600-082) medium containing 10% FBS (Gibco 10099-141). On the day of the experiment, the cells in the exponential growth phase were washed and separated with PBS/5 mM EDTA, collected by centrifugation, resuspended with Stimulation Buffer and counted. The concentration of cells was adjusted to 3*10^5 cells/ml. DMSO was used to dissolve Forskolin and the test compound respectively, so that the mother liquor concentration each was 10 mM, and then diluted Forskolin to […] with Stimulation Buffer, and different concentrations of the test compound (the concentrations were 80, 16, 3.2, 0.64, 0.128, 0.0256, 0.00512, 0.001024, 0 μM) was added, 5 μl per well was added to a 384-well plate. 5 μl of cell suspension was added to each well and incubated at room temperature for 30 min. Subsequently, 5 μl of 4×Eu-cAMP tracer working solution (50-fold dilution of Eu-cAMP stock solution with cAMP Detection Buffer) and 5 μl of 4×Ulight-anti-cAMP working solution (150-fold dilution of ULight-anti-cAMP stock solution with cAMP Detection Buffer) were added to each well, and incubated at room temperature for 1 hour. 384-well plates were assayed for cAMP levels using a microplate reader (Perkin Elmer, Envision) TR-FRET method. The obtained data were processed and fitted to EC50 using the origin 7.5 software. The human κ-opioid receptor agonistic activity of the compound of the present invention was measured through the above experiments, and the measured EC50 values are shown in Table 1.
Stimulation Buffer preparation method: 14 mL 1*HBSS (invitrogen, cat. #14025-092), 75 μL 1 M HEPES (Invitrogen, cat. #15630-080), 30 μL 250 mM IBMX was dissolved in DMSO (Sigma, cat. #17018) and mixed with 200 μL 7.5% BSA Stabilizer. pH of the solution was adjusted to 7.4 with 0.1 N NaOH and make up to 15 mL with 1*HBSS.

C57 mice = assay: Mouse hot plate experiment; format: in vivo; conditions: female C57 mice, subcutaneous, detection 15 minutes after administration, hot plate 56° C., cut-off 30 seconds
Protocol: Test 2: Mouse Hot Plate Experiment
18-22 g of female C57 mice were purchased from Chengdu Dashuo Experimental Animal Co., Ltd. The temperature of the hot plate instrument was set to 56° C., and after reaching 56° C., the temperature was stabilized for 30 minutes before experiment. The animals were placed in a hot plate test in order to observe the reaction of licking the hind feet, which was used as an indicator of pain response. The time from the entry of the animal to the hot plate to the heat-induced licking of the hind feet was recorded. Animals that meet the inclusion criteria (response time to lick the hind foot is less than 25s) are included in the group number. The animals were grouped by baseline threshold, with 10 in each group. Compounds of different concentrations were administered subcutaneously at 10 ml/kg, and a detection was carried out after 15 minutes of administration, with 30 seconds as the cut-off time, and the reaction time was recorded. The results were analyzed statistically, and the % MPE value was calculated according to the formula: % MPE=(Tn−T0)/(30−T0), (Tn is the time for the animal to lick the hind foot after administration, T0 is the time for the animal to lick the foot before administration) The experimental results are shown in Table 2.

Rat PK test = format: in vivo; conditions: male SD rats, iv, 1 mg/kg (calculated in free form)
Mouse PK test = format: in vivo; conditions: plasma, male ICR mice, iv, 1 mg/kg (calculated in free form)

T1 sequence (P41145 whole entry): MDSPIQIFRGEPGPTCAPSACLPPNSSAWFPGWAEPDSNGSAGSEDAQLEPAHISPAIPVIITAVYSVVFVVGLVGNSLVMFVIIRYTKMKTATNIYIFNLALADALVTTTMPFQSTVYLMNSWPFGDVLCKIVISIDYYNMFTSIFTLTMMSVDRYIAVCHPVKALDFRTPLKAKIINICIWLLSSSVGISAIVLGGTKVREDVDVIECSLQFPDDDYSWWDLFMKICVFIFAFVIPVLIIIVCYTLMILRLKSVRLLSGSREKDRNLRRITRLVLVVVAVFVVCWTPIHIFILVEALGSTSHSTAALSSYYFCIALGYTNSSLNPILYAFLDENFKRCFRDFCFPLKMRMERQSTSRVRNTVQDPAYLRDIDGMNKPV

| Structure (SMILES) | EC50 (human κ-opioid receptor) | MPE(%) (C57 mice) | Cl (Rat PK test) | AUC(0-t) (Rat PK test; rat, plasma) | half-life (Rat PK test; rat, plasma) | Vd (Rat PK test; rat, plasma, read-out: Vdss) | AUC(0-t) (Mouse PK test) | half-life (Mouse PK test) |
| --- | --- | --- | --- | --- | --- | --- | --- | --- |
| CC(C)C[C@@H](NC(=O)[C@@H](Cc1ccccc1)NC(=O)[C@H](N)Cc1ccccc1)C(=O)N[C@H](CCCCN)C(=O)N1CCC2(CC1)CC(N)(C(=O)O)C2 [Compound 2, 2-amino-7-[(2R)-6-amino-2-[[(2R)-2-[[(2R)-2-[[(2R)-2-amino-3-phenyl-propanoyl]amino]-3-phenyl-propanoyl]amino]-4-methyl-pentanoyl]amino]hexanoyl]-7-azaspiro[3.5]nonane-2-carboxylic acid; tri-trifluoroacetic acid] | 0.41 nM | −17.20% | 5.97 ml/kgmin | 2660 ng·h/mL | 4.22 h | 1.47 L/kg | – | – |
| CC(C)C[C@@H](NC(=O)[C@@H](Cc1ccccc1)NC(=O)[C@H](N)Cc1ccccc1)C(=O)N[C@H](CCCCN)C(=O)N1CC2(C1)CC1(CNC(=O)C1)C2 [Compound 4, (2R)—N-[(1R)-5-amino-1-(9-oxo-2,8-diazadispiro[3.1.4^6.1^4]undecane-2-carbonyl)pentyl]-2-[[(2R)-2-[[(2R)-2-amino-3-phenyl-propanoyl]amino]-3-phenyl-propanoyl]amino]-4-methyl-pentanamide; di-trifluoroacetic acid] | 0.0159 nM | −19.62% | – | – | – | – | – | – |
| CC(=O)N1CC2(CCN(C(=O)[C@@H](CCCCN)NC(=O)[C@@H](CC(C)C)NC(=O)[C@@H](Cc3ccccc3)NC(=O)[C@H](N)Cc3ccccc3)CC2)C1 [Compound 8, (2R)—N-[(1R)-1-(2-acetyl-2,7-diazaspiro[3.5]nonane-7-carbonyl)-5-amino-pentyl]-2-[[(2R)-2-[[(2R)-2-amino-3-phenyl-propanoyl]amino]-3-phenyl-propanoyl]amino]-4-methyl-pentanamide; di-trifluoroacetic acid] | 0.0112 nM | −18.61% | – | – | – | – | 1220 ng·h/mL | 5.77 h |
| CNC(=O)N1CC2(CCN(C(=O)[C@@H](CCCCN)NC(=O)[C@@H](CC(C)C)NC(=O)[C@@H](Cc3ccccc3)NC(=O)[C@H](N)Cc3ccccc3)CC2)C1 [Compound 15, 7-[(2R)-6-amino-2-[[(2R)-2-[[(2R)-2-[[(2R)-2-amino-3-phenyl-propanoyl]amino]-3-phenyl-propanoyl]amino]-4-methyl-pentanoyl]amino]hexanoyl]-N-methyl-2,7-diazaspiro[3.5]nonane-2-carboxamide; di-trifluoroacetic acid] | 0.0117 nM | −13.29% | – | – | – | – | – | – |
